Test results reported in paper PMC7496920, “Structure‐Activity Relationship of Phenylpyrazolones against Trypanosoma cruzi” (Chemmedchem, 2020).

Experiments:
[1] = system: intracellular amastigotes of T. cruzi (Tulahuen strain); test: Trypanosoma cruzi in vitro susceptibility assay on intracellular amastigotes (β‐galactosidase strain); assay type: cell-based; conditions: for IC50: Trypanosoma cruzi, TULAHUEN, MRC-5 SV2, 168 h, intracellular amastigotes, Tulahuen CL2 β‐galactosidase strain in MRC‐5SV2 cells, 7 d, SD ±0.2, n>=2, read-out: pIC50 T. cruzi (converted); for SI (selectivity index): cytotoxicity (IC50, MRC‐5) divided by T. cruzi activity (IC50)
Procedure: Trypanosoma cruzi in vitro assay: Bloodstream trypomastigotes (BT) of the Y strain of T. cruzi were obtained by cardiac puncture of infected Swiss Webster mice on the parasitaemia peak.12 For the standard in vitro susceptibility assay on intracellular amastigotes, T. cruzi Tulahuen CL2, β‐galactosidase strain (DTU VI, nifurtimox‐sensitive) was used. The strain is maintained on MRC‐5SV2 (human lung fibroblast) cells in MEM medium, supplemented with […] L‐glutamine, 16.5 mM NaHCO3, and 5 % heat inactivated fetal calf serum (FCSi). […] The color reaction was read at 540 nm after 4 h, and absorbance values were expressed as a percentage of the blank controls. All cultures and assays are conducted at 37 °C under 5 % CO2.13 Benznidazole was used as a reference compound.

MRC‐5 cells [2] = test: MRC‐5 cytotoxicity in vitro assay (resazurin); assay type: cell-based, human; conditions: for IC50: Homo sapiens, MRC5, 72 h, MRC‐5‐SV2 cytotoxicity, 72 h, SD ±0.2, n>=2, read-out: pIC50 MRC‐5 (converted)
Procedure: MRC‐5 cytotoxicity in vitro assay: MRC‐5‐SV2 cells, originally from a human diploid lung cell line, were cultivated in MEM, supplemented with L‐glutamine (20 mM), 16.5 mM sodium hydrogen carbonate and 5 % FCSi. For the assay, 10^4 cells/well were seeded onto the test plates containing the pre‐diluted sample and incubated at 37 °C and 5 % CO2 for 72 h. Cell viability was assessed fluorometrically 4 h after addition of resazurin (excitation 550 nm, emission 590 nm). The results are expressed as percentage reduction in cell viability compared to untreated controls. Tamoxifen was used as a reference compound.

MRC‐5 cells [3] = system: MRC‐5 cells; design: method as in earlier work; conditions: earlier hit optimization; cited from earlier work
[4] = system: intracellular amastigotes of T. cruzi (Tulahuen strain); design: method as in earlier work; conditions: earlier hit optimization; cited from earlier work

SMILES	IC50 [1] [µM]	SI (selectivity index) [1]	IC50 (MRC‐5 cells [2]) [µM]	pIC50 MRC‐5 (MRC‐5 cells [3])	pIC50 T. cruzi [4]	MRC‐5 toxicity at 62 μM (MRC‐5 cells [2]; 62 μM, limit concentration screened)
COc1c(Br)cc(C2=NN(C(C)C)C(=O)C2(C)C)cc1-c1cccnc1 [compound 60]	7.94	3	25.1	–	–	–
COc1ccc(-c2nc(-c3ccccc3)c(C)o2)cc1-c1cccnc1 [compound 124]	2	3	< 6.31	–	–	–
COc1ccc(-c2nnc(-c3cccc(F)c3)o2)cc1-c1cccnc1 [compound 136]	~1.58	>32	> 63.1	–	–	–
COc1ccc(C2=NN(C(C)C)C(=O)C2(C)C)cc1-c1cccnc1 [compound 3, 2‐isopropyl‐5‐(4‐methoxy‐3‐(pyridin‐3‐yl)phenyl)‐4,4‐dimethyl‐2,4‐dihydro‐3H‐pyrazol‐3‐one]	0.398	100	39.8	4.4	6.4	–
CC(C)N1N=C(c2cccc(-c3cccnc3)c2)C(C)(C)C1=O [compound 61]	3.16	20	63.1	–	–	–
COc1ccc(-c2nc(-c3ccccc3)cs2)cc1-c1cccnc1 [compound 142]	2	1	2.51	–	–	–
COc1cc(C2=NN(C(C)C)C(=O)C2(C)C)cc(-c2cccnc2)c1OC [compound 58]	50.1	>1	> 63.1	–	–	–
COc1ccc(C2=NN(C(C)C)C(=O)C2(C)C)c(F)c1-c1cccnc1 [compound 65]	2.51	>25	> 63.1	–	–	–
COc1ccc(-c2nnc(C3CCCC3)o2)cc1-c1cccnc1 [compound 133]	10	>6	> 63.1	–	–	–
CC(C)N1N=C(c2ccc(C#N)c(-c3cccnc3)c2)C(C)(C)C1=O [compound 74]	50.1	>1	> 63.1	–	–	–
COc1ccc(Cc2nnc(N)s2)cc1-c1cccnc1 [compound 98]	> 63.1	–	> 63.1	–	–	–
COc1cc(C)c(C2=NN(C(C)C)C(=O)C2(C)C)cc1-c1cccnc1 [compound 68]	31.6	>2	> 63.1	–	–	–
CC(C)N1N=C(c2ccc(F)c(-c3cccnc3)c2)C(C)(C)C1=O [compound 62]	~3.16	>10	> 63.1	–	–	–
COc1ccc(-c2nc(-c3ccc(F)cc3)co2)cc1-c1cccnc1 [compound 123]	0.631	>100	> 63.1	–	–	no MRC‐5 toxicity
COc1ccc(C2=Nn3c(C4CC4)nnc3C2(C)C)cc1-c1cccnc1 [compound 109]	15.8	>4	> 63.1	–	–	–
CC(C)N1N=C(c2ccc(Cl)c(-c3cccnc3)c2)C(C)(C)C1=O [compound 63]	~3.16	5	15.8	–	–	–
COc1ccc(-c2nnc(CC3CCOCC3)o2)cc1-c1cccnc1 [compound 134]	25.1	>3	> 63.1	–	–	–
COc1ccc(C2=NN(C(C)C)C(=O)CC2)cc1-c1cccnc1 [compound 104]	10	3	25.1	–	–	–

SMILES	IC50 [1] [µM]	SI (selectivity index) [1]	IC50 (MRC‐5 cells [2]) [µM]	pIC50 MRC‐5 (MRC‐5 cells [3])	pIC50 T. cruzi [4]	MRC‐5 toxicity at 62 μM (MRC‐5 cells [2]; 62 μM, limit concentration screened)
COc1ccc(-c2cc3n(n2)CCO3)cc1-c1cccnc1 [compound 95]	31.6	2	50.1	–	–	–
COc1ccc(C2=NN(C(C)C)C(=O)C23CCCC3)cc1-c1cccnc1 [compound 89]	6.31	–	31.6	–	–	–
COc1ccc(-c2nnc(C(C)C)o2)cc1-c1cccnc1 [compound 132, 2‐Isopropyl‐5‐(4‐methoxy‐3‐(pyridin‐3‐yl)phenyl)‐1,3,4‐oxadiazole]	20	>3	> 63.1	–	–	–
COc1ccc(C2=NN(C(C)C)C(=S)C2(C)C)cc1-c1cccnc1 [compound 99]	0.501	32	15.8	–	–	–
COc1ccc(-c2nc(C3CC3)cs2)cc1-c1cccnc1 [compound 141]	2.51	3	7.94	–	–	–
COc1ccc(C2=NN(C(C)C)C(=O)C23CCN(C)CC3)cc1-c1cccnc1 [compound 91]	31.6	2	50.1	–	–	–
COc1ccc(C2=NN(C(C)C)C(=O)C23CC=CC3)cc1-c1cccnc1 [compound 90]	7.94	–	39.8	–	–	–
COc1ccc(-c2nc(-c3ccccc3)co2)cc1-c1cccnc1 [compound 121]	1	3	< 6.31	–	–	–
COc1ccc(-c2nc(-c3cccc(F)c3)co2)cc1-c1cccnc1 [compound 122]	1.26	–	–	–	–	–
COc1cc(F)c(C2=NN(C(C)C)C(=O)C2(C)C)cc1-c1cccnc1 [compound 66]	5.01	>13	> 63.1	–	–	–
COc1ccc(-c2nnc(-c3ccccc3)o2)cc1-c1cccnc1 [compound 135]	~1.58	>40	> 63.1	–	–	–
Cc1ccc(C2=NN(C(C)C)C(=O)C2(C)C)cc1-c1cccnc1 [compound 64]	~3.16	>25	> 63.1	–	–	–
CC(C)N1N=C(c2cc3c(c(-c4cccnc4)c2)OCC3)C(C)(C)C1=O [compound 59, 1‐Isopropyl‐4,4‐dimethyl‐3‐(7‐(pyridin‐3‐yl)‐2,3‐dihydrobenzofuran‐5‐yl)‐1H‐pyrazol‐5(4H)‐one]	1.58	16	25.1	–	–	–
COc1c(C)cc(C2=NN(C(C)C)C(=O)C2(C)C)cc1-c1cccnc1 [compound 67]	12.6	>5	> 63.1	–	–	–
COc1ccc(-c2nc(C(C)(C)C)co2)cc1-c1cccnc1 [compound 120, 4‐(tert‐Butyl)‐2‐(4‐methoxy‐3‐(pyridin‐3‐yl)phenyl)oxazole]	2	3	< 6.31	–	–	–
COc1ccc(C2=NN(C(C)C)C(=O)C23CCOCC3)cc1-c1cccnc1 [compound 92]	31.6	1	31.6	–	–	–
COc1cc(C2=NN(C(C)C)C(=O)C2(C)C)cc(-c2cccnc2)c1 [compound 57]	7.94	4	31.6	–	–	–
